Biological target: T1, Pent (designed pentameric 5-bladed β-propeller lectin, 5c2n-N33K)
T1 construct: 47-residue monomer (lacking Met1), homopentamer of ~26 kDa; designed, based on tachylectin-2 (PDB 5C2N)
Assay: X-ray cocrystal structures (forms I and II); 1H-15N HSQC NMR titration
Format: binding, synthetic construct

Work on `O=S(=O)(O)c1cc2c(O)c(c1)Cc1cc(S(=O)(=O)O)cc(c1O)Cc1cc(S(=O)(=O)O)cc(c1O)Cc1cc(S(=O)(=O)O)cc(c1O)Cc1cc(S(=O)(=O)O)cc(c1O)Cc1cc(S(=O)(=O)O)cc(c1O)Cc1cc(S(=O)(=O)O)cc(c1O)Cc1cc(S(=O)(=O)O)cc(c1O)C2` [sclx8, sulfonato-calix[8]arene] yielded a Kd of less than 3000 nM.
